Measured values published in US20100216736A2, “2'-CYANOPYRIMIDINE NUCLEOSIDE COMPOUND” (Taiho Pharmaceutical Co., Ltd., priority 2006, published 2010).
In brackets after ≈: the same amount, converted by molar mass.

Legend:
[1] = tested on: Human colon cancer strain KM20C; assay: Antitumor test using tumor-subcutaneously-implanted nude mouse system upon oral administration (equimolar dose); assay type: in vivo, BALB/cA Jcl-nu mouse; details: once per day for 14 days, dose equimolar to 18 mg of CNDAC/kg of body weight per day, evaluated on the 29th day after grouping, vs untreated group
Experimental: Antitumor Test using Tumor-Subcutaneously-Implanted Nude Mouse System Upon Oral Administration
(§1) Human colon cancer strain KM20C subcutaneously subcultured in a BALB/cA Jcl-nu mouse (product of Clea Japan Inc.) was prepared into fragments of 2 mm×2 mm, and subcutaneously implanted into the backs of 6-week-old BALB/cA Jcl-nu mice. When the average tumor volume exceeded 100 mm^3, the length of each tumor was measured along the major axis and minor axis, and the tumor volume was calculated using the following equation. The mice were then divided into several groups to reduce variations in tumor volume among the groups (5 or 6 mice per group). Vt=½(Vl)×(Vs)^2, (Equation 1)
wherein Vt represents a tumor volume, Vl represents the length along the tumor major axis, and Vs represents the length along the tumor minor axis.
Test compounds were each dissolved or suspended in a 0.5% hydroxypropylmethylcellulose solution prepared with 100 mM citrate buffer (pH 5.0), and, from the day after the day of grouping, orally administered to the mice once per day for 14 days. The dose was set to be equimolar to 18 mg of CNDAC/kg of body weight per day.
On the 29th day after the day of grouping, with respect to the mice in each group, the longest diameter and shortest diameter of each of the subcutaneously implanted tumors were measured. The relative tumor volume (RTV) and the tumor growth inhibition rate (1R) were calculated using the following equation to evaluate antitumor effects. RTV=Vt1/Vt2, (Equation 2)
wherein RTV represents a relative tumor volume, Vt1 represents the tumor volume on the day of evaluation, and Vt2 represents the tumor volume on the day of grouping. IR(%)=[1−(RTVtest)/(RTVcont)]×100, (Equation 3)
wherein IR represents a tumor growth inhibition rate, RTVtest represents the average RTV value in a drug administration group, and RTVcont represents the average RTV value in an untreated group.

[2] = tested on: Human colon cancer strain KM20C; assay: Antitumor test using tumor-subcutaneously-implanted nude mouse system upon oral administration at an equitoxic dose; assay type: in vivo, BALB/cA Jcl-nu mouse; details: once per day for 14 days; for tumor course after completion of administration (regrowth): 20th to 25th day after grouping (about 1 week after completion of administration)
Experimental: Antitumor Test of CNDAC, P-CNDAC, and Compounds 1 and 11 of the Present Invention using Tumor-Subcutaneously-Implanted Nude Mouse System Upon Oral Administration at an Equitoxic Dose.
as §1, with “On” for “When”, “15th day after the day of implantation,” for “average tumor volume exceeded 100 mm^3,”, “Vt=1/2(Vl)×(Vs)2” for “Vt=½(Vl)×(Vs)^2,”, “5) wherein Vt represents a tumor volume, Vl represents the length along the tumor major axis, and Vs represents the length along the tumor minor axis.” for “1)”
CNDAC, P-CNDAC, and Compounds 1 and 11 were each dissolved or suspended in a 0.5% hydroxypropylmethylcellulose solution prepared with 100 mM citrate buffer (pH 5.0), and, from the day after the day of grouping, orally administered at an equitoxic dose once per day for 14 days.
With respect to the mice in each group, the length of each of the subcutaneously implanted tumors was measured along the major axis and minor axis twice a week. RTV was calculated as a reference of tumor growth using the following equation to evaluate antitumor effects. RTV=Vt1/Vt2, (Equation 6)
wherein RTV represents a relative tumor volume, Vt1 represents the tumor volume on the day of evaluation, and Vt2 represents the tumor volume on the day of grouping.

[3] = Measurement of water solubility; details: for solubility at 75 min: water, 37 °C, thermodynamic from solid
Experimental: Measurement of Water Solubility
Test compounds (2 mg or more) were each suspended in water (1 ml), then sonicated for 10 seconds, and incubated at 37° C. for 75 minutes. After filtration through a membrane filter (Millex-LG, 0.2 μm, product of Millipore Corporation), 100 μl of the obtained filtrate was diluted with acetonitrile (100 μl), and analyzed using a high performance liquid chromatograph apparatus.
The solubility of each test compound in water was calculated from the calibration curve.

[4] = Pharmacokinetic testing in SD (IGS) rats, oral administration, CNDAC serum concentration; assay type: in vivo; details: 10 mg/kg of body weight, rat, dose equivalent to 10 mg of CNDAC/kg of body weight, 0 to 8 hours after administration
Experimental: Pharmacokinetic Testing in SD (IGS) Rats
Test compounds were orally administered to SD (IGS) rats (product of Charles River Laboratories Japan, Inc.; 8 weeks old), and, based on the CNDAC serum concentration in the rats, orally administered absorbability and in vivo activation into CNDAC were evaluated.
In the morning of the test day, predetermined amounts of test compounds were each dissolved or suspended in a 0.5% hydroxypropylmethylcellulose solution prepared with 100 mM citrate buffer (pH 4.5), and orally administered. CNDAC was administered at a dose of 10 mg/kg of body weight, and other test compounds were administered at a dose equivalent to 10 mg of CNDAC/kg of body weight. Blood was collected from the jugular vein 0.5, 1, 2, 4, 6, and 8 hours after administration of the test compounds (two or three rats per point) to obtain serum. The serum concentrations of the compounds and CNDAC were measured using LC/MS, and the area under the curve (AUC) of the CNDAC serum concentration from 0 to 8 hours after administration were calculated.

| Compound | solubility at 75 min [3] [µg/mL] | melting point | IR (%) tumor growth inhibition rate [1] [%] | other results |
| --- | --- | --- | --- | --- |
| N#C[C@H]1[C@H](O)[C@@H](CO)O[C@H]1n1ccc(N)nc1=O [CNDAC, 2′-cyano-2′-deoxy-1-β-D-arabinofuranosylcytosine, reference compound] | > 1000 |  | 54 | tumor disappearance [2]: tumors did not disappear; tumor course after completion of administration (regrowth) [2]: tumor regrowth was observed; water solubility, in words ([3]; in water, 37° C.): extremely high water solubility; AUC(0-t) [4]: 493 ng·h/mL |
| CCCCC/C=C\CCOC(=O)Nc1ccn([C@@H]2O[C@H](CO)[C@H](O)[C@@H]2C#N)c(=O)n1 [Compound 4, 4-N—[(Z)-3-Nonen-1-yloxycarbonyl]-2′-cyano-2′-deoxy-1-β-D-arabinofuranosylcytosine] |  |  | 93 |  |
| CCCCCCOC(=O)OC[C@H]1O[C@@H](n2ccc(N)nc2=O)[C@@H](C#N)[C@@H]1O [Compound 8, 5′-O-(n-Hexyloxycarbonyl)-2′-cyano-2′-deoxy-1-β-D-arabinofuranosylcytosine] | > 50 | 154.1 °C | 76 |  |
| CCCCCCCOC(=O)OC[C@H]1O[C@@H](n2ccc(N)nc2=O)[C@@H](C#N)[C@@H]1O [Compound 9, 5′-O-(n-Heptyloxycarbonyl)-2′-cyano-2′-deoxy-1-β-D-arabinofuranosylcytosine] | > 50 | 152.2 °C | 78 |  |
| CCCCCCCCOC(=O)OC[C@H]1O[C@@H](n2ccc(N)nc2=O)[C@@H](C#N)[C@@H]1O [Compound 10, 5′-O-(n-Octyloxycarbonyl)-2′-cyano-2′-deoxy-1-β-D-arabinofuranosylcytosine] | > 50 | 143.1 °C | 89 |  |
| CCCCC(CCCC)OC(=O)OC[C@H]1O[C@@H](n2ccc(N)nc2=O)[C@@H](C#N)[C@@H]1O [Compound 11, 5′-O-(Nonan-5-yloxycarbonyl)-2′-cyano-2′-deoxy-1-β-D-arabinofuranosylcytosine] | 49.5 (≈ 117 µM) | 167.2 °C | 93 | reduction of tumor volume (RTV), FIG. 1 [2]: greater reduction of tumor volume than CNDAC and P-CNDAC; tumor course after completion of administration (regrowth) [2]: the tumor size continued to reduce even after completion of administration |
| CC(C)CC(CC(C)C)OC(=O)OC[C@H]1O[C@@H](n2ccc(N)nc2=O)[C@@H](C#N)[C@@H]1O [Compound 14, 5′-O-(2,6-Dimethylheptan-4-yloxycarbonyl)-2′-cyano-2′-deoxy-1-β-D-arabinofuranosylcytosine] |  | 182.7 °C (dec.) |  |  |
| N#C[C@H]1[C@H](O)[C@@H](COC(=O)Oc2ccc(Cl)cc2)O[C@H]1n1ccc(N)nc1=O [Compound 17, 5′-O-(4-Chlorophenyloxycarbonyl)-2′-cyano-2′-deoxy-1-β-D-arabinofuranosylcytosine] |  | 113 °C | 58 |  |
| CCCCCCCCCCCCCCCC(=O)Nc1ccn([C@@H]2O[C@H](CO)[C@@H](O)[C@@H]2C#N)c(=O)n1 [P-CNDAC, 4-N-palmitoyl-2′-cyano-2′-deoxy-1-β-D-arabinofuranosylcytosine, reference compound] |  |  |  | tumor disappearance [2]: tumors did not disappear; tumor course after completion of administration (regrowth) [2]: tumor regrowth was observed; water solubility, in words ([3]; in water, 37° C.): low water solubility; Water Solubility ([3]; in water, 37° C., 75 minutes, filtrate analysed by HPLC): <0.5 µg/mL |

The next lines start with results.

| solubility at 75 min [3] [µg/mL] | melting point | Compound | IR (%) tumor growth inhibition rate [1] [%] | other results |
| --- | --- | --- | --- | --- |
| 21.1 (≈ 49.9 µM) | 66 °C | CCCCCCCCCOC(=O)Nc1ccn([C@@H]2O[C@H](CO)[C@@H](O)[C@@H]2C#N)c(=O)n1 [Compound 1, 4-N-(n-Nonyloxycarbonyl)-2′-cyano-2′-deoxy-1-β-D-arabinofuranosylcytosine] | 96 | reduction of tumor volume (RTV), FIG. 1 [2]: greater reduction of tumor volume than CNDAC and P-CNDAC; tumor disappearance [2]: tumor disappearance was achieved in one of the five cases; tumor course after completion of administration (regrowth) [2]: the tumor size continued to reduce even after completion of administration |
|  | 83.6 °C | CCCCC(CCCC)OC(=O)Nc1ccn([C@@H]2O[C@H](CO)[C@@H](O)[C@@H]2C#N)c(=O)n1 [Compound 2, 4-N-(Nonan-5-yloxycarbonyl)-2′-cyano-2′-deoxy-1-β-D-arabinofuranosylcytosine] |  |  |
|  | 72.4 °C | CC/C=C\CCCCCOC(=O)Nc1ccn([C@@H]2O[C@H](CO)[C@@H](O)[C@@H]2C#N)c(=O)n1 [Compound 3, 4-N—[(Z)-6-Nonen-1-yloxycarbonyl]-2′-cyano-2′-deoxy-1-β-D-arabinofuranosylcytosine] |  |  |
|  | 71.1 °C | CCCCCC/C=C/COC(=O)Nc1ccn([C@@H]2O[C@H](CO)[C@@H](O)[C@@H]2C#N)c(=O)n1 [Compound 5, 4-N—[(E)-2-Nonen-1-yloxycarbonyl]-2′-cyano-2′-deoxy-1-β-D-arabinofuranosylcytosine] |  |  |
|  | 72.7 °C | C=CCCCCCCCOC(=O)Nc1ccn([C@@H]2O[C@H](CO)[C@@H](O)[C@@H]2C#N)c(=O)n1 [Compound 6, 4-N-(8-Nonen-1-yloxycarbonyl)-2′-cyano-2′-deoxy-1-β-D-arabinofuranosylcytosine] |  |  |
| > 50 |  | CCCCCC/C=C\COC(=O)Nc1ccn([C@@H]2O[C@H](CO)[C@@H](O)[C@@H]2C#N)c(=O)n1 [Compound 7, 4-N—[(Z)-2-Nonen-1-yloxycarbonyl]-2′-cyano-2′-deoxy-1-β-D-arabinofuranosylcytosine] | 96 |  |
|  | 97 °C | CCCCCCCCCCOC(=O)Nc1ccn([C@@H]2O[C@H](CO)[C@@H](O)[C@@H]2C#N)c(=O)n1 [Compound 15, 4-N-(n-Decyloxycarbonyl)-2′-cyano-2′-deoxy-1-β-D-arabinofuranosylcytosine] | 22 |  |
|  | 67.5 °C | CCCCCCCCOC(=O)Nc1ccn([C@@H]2O[C@H](CO)[C@@H](O)[C@@H]2C#N)c(=O)n1 [Compound 16, 4-N-(n-Octyloxycarbonyl)-2′-cyano-2′-deoxy-1-β-D-arabinofuranosylcytosine] | 38 |  |
